We go through two compounds from patent publication US11213484B2, “Dipivefrin orally disintegrating tablet formulations” (priority 2019, dated 2022).

For series [1] the following is noted: cited from earlier work.
For series [2] the following is noted: cited from earlier work. The source holds these as a separate data set.
Series [3] in a line: Oral absorption (general statements). Type of series: in vivo. The following applies: orally administered.
The conditions of series [4]: well known in the art; cited from earlier work.

Consider `CNCC(O)c1ccc(OC(=O)C(C)(C)C)c(OC(=O)C(C)(C)C)c1` (centres unmarked) [Dipivefrin, 4-(1-hydroxy-2-(methylamino)ethyl)-1,2-phenylene bis(2,2-dimethylpropanoate)], for which the “dipivefrin converted into epinephrine” value in series [1] (0.5% solution instilled in human eyes, within 30 minutes) is listed as 80%. The “ocular penetration relative to epinephrine (times greater)” value in series [1] (human eyes) is on record as 17 times. Also, the “amount entering the rabbit eye relative to epinephrine” value in series [2] is given as “eight to ten times more”. In addition, the “absorption after oral administration” value in series [3] is “well absorbed”.
Consider `CNC[C@H](O)c1ccc(O)c(O)c1` [epinephrine], for which the “absorption when taken orally” value in series [4] is recorded as “not absorbed”.
